Source: patent publication US10670605B2, “Cysteine reactive probes and uses thereof” (The Scripps Research Institute, priority 2015, dated 2020)

Columns and labels:
Experiment in all cases: Competitive isoTOP-ABPP in situ (fragment-treated cells)
Type in all cases: cell-based
[1] = biological target: cysteines in MDA-MB-231 and Ramos cells (Homo sapiens, UniProt Q9UJW0)
[2] = biological target: cysteines in MDA-MB-231 and Ramos cells (Homo sapiens, UniProt O14980)
[3] = biological target: T1, cysteines in MDA-MB-231 and Ramos cells (Homo sapiens, UniProt Q96F86)
T1 sequence (Q96F86 1-508): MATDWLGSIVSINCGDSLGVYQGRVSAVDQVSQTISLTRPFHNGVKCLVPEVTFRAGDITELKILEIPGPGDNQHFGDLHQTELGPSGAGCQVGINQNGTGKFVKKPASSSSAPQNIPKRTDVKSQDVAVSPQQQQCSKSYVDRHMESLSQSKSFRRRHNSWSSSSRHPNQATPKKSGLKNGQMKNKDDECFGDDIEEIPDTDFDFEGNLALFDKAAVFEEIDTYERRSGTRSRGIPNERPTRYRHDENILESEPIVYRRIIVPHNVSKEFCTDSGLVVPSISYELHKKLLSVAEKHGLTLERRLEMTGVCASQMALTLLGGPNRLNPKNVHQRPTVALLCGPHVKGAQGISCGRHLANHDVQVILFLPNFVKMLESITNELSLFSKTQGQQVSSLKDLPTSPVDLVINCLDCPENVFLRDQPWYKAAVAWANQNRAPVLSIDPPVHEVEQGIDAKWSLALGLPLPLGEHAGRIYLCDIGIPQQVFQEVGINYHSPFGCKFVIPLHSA

[4] = biological target: cysteines in MDA-MB-231 and Ramos cells (Homo sapiens, UniProt P53634); settings: 200 μM, insitu, 231
Sequence of cysteines in MDA-MB-231 and Ramos cells (Homo sapiens, UniProt P53634) (P53634 25-463): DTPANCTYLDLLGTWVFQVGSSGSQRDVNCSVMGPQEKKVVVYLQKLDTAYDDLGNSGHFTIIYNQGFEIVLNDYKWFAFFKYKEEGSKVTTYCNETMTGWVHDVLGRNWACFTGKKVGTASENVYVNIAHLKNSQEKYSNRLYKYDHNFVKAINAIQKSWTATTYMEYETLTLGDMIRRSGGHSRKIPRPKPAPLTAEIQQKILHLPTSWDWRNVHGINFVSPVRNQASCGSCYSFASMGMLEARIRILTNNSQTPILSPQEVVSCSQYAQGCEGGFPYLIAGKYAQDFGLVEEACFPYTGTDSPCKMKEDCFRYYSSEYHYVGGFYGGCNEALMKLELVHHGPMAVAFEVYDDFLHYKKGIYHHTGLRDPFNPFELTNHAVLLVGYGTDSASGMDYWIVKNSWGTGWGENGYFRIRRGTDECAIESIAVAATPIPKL

[5] = biological target: T2, cysteines in MDA-MB-231 and Ramos cells (Homo sapiens, UniProt Q86YH6)
T2 sequence (Q86YH6 1-399): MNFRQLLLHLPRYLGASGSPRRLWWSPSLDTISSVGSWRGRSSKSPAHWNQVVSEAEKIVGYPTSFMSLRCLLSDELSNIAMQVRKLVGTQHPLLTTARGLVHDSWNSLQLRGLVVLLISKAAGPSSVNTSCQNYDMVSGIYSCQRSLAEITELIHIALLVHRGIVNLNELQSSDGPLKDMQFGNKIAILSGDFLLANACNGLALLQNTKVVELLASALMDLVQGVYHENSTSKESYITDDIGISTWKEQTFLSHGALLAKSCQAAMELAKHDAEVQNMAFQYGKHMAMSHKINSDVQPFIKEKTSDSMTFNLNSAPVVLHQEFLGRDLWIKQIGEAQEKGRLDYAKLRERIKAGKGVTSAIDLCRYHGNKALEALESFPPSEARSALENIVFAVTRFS

[6] = biological target: cysteines in MDA-MB-231 and Ramos cells (Homo sapiens, UniProt P35658)
Sequence of cysteines in MDA-MB-231 and Ramos cells (Homo sapiens, UniProt P35658) (P35658 whole entry): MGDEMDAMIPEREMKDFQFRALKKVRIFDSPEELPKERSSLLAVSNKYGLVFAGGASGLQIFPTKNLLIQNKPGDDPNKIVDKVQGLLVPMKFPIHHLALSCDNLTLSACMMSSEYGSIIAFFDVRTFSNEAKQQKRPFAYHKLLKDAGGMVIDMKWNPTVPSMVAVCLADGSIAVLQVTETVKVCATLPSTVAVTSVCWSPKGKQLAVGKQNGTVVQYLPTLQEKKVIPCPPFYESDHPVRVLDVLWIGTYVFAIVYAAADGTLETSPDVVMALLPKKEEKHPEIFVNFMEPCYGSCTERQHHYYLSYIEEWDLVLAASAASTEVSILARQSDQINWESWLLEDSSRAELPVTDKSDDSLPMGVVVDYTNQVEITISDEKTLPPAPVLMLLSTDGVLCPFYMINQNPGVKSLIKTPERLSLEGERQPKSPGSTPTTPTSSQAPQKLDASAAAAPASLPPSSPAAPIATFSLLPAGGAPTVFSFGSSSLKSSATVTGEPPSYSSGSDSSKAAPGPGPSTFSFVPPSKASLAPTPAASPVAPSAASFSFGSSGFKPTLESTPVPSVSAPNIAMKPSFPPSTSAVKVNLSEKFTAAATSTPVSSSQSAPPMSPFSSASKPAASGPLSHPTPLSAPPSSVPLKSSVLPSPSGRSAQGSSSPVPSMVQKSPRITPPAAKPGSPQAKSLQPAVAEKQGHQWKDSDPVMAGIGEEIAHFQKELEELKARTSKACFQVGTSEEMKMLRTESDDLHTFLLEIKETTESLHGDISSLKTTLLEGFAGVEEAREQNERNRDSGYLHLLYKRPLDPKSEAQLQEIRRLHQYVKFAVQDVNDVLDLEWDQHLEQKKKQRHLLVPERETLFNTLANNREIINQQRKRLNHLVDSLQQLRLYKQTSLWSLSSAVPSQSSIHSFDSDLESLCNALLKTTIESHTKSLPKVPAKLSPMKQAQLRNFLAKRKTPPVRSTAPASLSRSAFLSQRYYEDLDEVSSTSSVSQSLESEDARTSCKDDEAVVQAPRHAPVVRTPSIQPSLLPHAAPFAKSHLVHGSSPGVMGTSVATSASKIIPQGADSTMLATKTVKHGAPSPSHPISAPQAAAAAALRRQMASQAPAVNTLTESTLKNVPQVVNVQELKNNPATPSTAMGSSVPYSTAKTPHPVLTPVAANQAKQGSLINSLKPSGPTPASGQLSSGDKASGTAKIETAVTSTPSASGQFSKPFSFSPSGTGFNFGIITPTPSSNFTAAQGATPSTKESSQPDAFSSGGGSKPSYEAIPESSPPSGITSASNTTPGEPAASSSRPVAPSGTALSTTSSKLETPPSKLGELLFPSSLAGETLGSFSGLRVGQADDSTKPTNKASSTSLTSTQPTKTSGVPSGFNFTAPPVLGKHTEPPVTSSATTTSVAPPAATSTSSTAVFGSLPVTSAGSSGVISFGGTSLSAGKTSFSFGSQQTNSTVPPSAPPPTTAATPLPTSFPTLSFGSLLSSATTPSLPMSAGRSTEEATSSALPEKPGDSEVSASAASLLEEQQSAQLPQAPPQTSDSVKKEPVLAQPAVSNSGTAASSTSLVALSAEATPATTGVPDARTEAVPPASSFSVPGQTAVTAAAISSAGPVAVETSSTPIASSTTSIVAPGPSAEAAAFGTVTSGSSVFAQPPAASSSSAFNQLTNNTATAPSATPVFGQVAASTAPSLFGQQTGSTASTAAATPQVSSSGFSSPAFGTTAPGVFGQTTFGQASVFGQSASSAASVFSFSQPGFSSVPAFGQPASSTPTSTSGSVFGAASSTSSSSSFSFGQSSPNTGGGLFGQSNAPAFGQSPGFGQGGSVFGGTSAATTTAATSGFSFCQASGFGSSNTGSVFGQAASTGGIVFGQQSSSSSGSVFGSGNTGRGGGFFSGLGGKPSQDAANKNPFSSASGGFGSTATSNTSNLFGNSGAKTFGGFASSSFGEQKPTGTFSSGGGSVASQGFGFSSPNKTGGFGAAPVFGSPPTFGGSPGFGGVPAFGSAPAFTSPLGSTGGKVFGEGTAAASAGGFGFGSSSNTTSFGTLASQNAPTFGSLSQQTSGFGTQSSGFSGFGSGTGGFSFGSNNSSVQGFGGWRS

[7] = biological target: T3, cysteines in MDA-MB-231 and Ramos cells (Homo sapiens, UniProt Q86UY8)
T3 sequence (Q86UY8 1-548): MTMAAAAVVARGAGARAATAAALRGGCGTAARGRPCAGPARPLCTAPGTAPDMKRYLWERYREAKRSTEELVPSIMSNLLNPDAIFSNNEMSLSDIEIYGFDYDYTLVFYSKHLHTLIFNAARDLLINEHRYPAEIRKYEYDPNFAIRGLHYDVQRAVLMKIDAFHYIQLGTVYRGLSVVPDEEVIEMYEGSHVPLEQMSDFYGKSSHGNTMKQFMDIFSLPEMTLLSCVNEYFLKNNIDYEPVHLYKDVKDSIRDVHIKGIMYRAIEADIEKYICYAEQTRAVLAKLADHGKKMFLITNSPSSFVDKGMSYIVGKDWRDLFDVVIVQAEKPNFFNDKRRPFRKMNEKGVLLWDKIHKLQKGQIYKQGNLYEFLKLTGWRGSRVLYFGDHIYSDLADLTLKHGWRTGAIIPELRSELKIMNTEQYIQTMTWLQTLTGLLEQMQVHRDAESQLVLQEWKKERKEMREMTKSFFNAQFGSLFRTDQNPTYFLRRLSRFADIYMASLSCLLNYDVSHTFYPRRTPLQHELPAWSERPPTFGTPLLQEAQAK

[8] = biological target: T4, cysteines in MDA-MB-231 and Ramos cells (Homo sapiens, UniProt Q86W42)
T4 sequence (Q86W42 1-341): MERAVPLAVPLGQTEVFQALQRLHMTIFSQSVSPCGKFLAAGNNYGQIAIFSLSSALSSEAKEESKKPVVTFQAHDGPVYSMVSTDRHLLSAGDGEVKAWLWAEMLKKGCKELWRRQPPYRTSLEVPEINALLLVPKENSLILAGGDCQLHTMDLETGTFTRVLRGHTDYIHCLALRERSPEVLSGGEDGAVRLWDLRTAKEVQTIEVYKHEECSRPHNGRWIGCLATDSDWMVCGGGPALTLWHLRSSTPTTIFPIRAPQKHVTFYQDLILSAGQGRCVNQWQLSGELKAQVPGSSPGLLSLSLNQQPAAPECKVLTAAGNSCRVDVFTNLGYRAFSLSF

[9] = biological target: cysteines in MDA-MB-231 and Ramos cells (Homo sapiens, UniProt Q9UNI6); settings: 200 μM, insitu, 231
Sequence of cysteines in MDA-MB-231 and Ramos cells (Homo sapiens, UniProt Q9UNI6) (Q9UNI6 whole entry): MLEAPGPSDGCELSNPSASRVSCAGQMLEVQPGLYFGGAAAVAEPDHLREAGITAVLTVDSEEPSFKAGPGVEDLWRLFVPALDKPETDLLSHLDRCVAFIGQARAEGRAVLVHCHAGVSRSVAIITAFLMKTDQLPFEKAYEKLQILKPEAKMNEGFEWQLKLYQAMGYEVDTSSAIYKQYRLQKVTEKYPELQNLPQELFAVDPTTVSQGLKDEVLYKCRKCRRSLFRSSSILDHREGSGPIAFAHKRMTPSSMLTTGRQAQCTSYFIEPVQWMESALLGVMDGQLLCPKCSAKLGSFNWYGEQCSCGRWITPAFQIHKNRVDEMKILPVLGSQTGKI

[10] = biological target: T5, cysteines in MDA-MB-231 and Ramos cells (Homo sapiens, UniProt Q96EB1); settings: 200 μM, insitu, 231
T5 sequence (Q96EB1 1-424): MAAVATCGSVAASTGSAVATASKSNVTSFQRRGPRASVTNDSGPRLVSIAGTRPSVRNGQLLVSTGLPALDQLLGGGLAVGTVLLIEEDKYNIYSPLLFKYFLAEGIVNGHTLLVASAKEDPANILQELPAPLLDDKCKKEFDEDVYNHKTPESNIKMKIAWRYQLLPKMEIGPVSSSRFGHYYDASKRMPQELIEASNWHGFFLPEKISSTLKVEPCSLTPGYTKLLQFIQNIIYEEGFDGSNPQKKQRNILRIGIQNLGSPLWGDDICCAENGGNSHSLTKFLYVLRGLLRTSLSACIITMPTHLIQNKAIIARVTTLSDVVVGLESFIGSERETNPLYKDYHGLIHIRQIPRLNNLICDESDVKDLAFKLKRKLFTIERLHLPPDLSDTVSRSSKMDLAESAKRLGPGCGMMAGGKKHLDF

[11] = biological target: cysteines in MDA-MB-231 and Ramos cells (Homo sapiens, UniProt P48643)
Sequence of cysteines in MDA-MB-231 and Ramos cells (Homo sapiens, UniProt P48643) (P48643 whole entry): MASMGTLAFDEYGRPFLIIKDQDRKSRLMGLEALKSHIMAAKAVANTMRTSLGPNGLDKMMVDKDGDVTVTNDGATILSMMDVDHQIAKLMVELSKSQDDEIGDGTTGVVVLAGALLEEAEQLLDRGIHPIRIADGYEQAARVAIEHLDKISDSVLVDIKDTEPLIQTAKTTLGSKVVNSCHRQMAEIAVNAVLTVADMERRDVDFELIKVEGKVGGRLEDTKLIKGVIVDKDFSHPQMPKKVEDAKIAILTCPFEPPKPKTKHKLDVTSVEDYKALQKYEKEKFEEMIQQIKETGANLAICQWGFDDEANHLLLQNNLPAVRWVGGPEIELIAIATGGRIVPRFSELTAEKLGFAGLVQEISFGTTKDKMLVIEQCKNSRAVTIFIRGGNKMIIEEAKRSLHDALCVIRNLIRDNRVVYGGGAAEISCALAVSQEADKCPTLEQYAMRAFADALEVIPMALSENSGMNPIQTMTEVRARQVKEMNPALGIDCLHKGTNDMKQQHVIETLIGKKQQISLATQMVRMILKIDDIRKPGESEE

[12] = biological target: cysteines in MDA-MB-231 and Ramos cells (Homo sapiens, UniProt P14635)

Sequence of cysteines in MDA-MB-231 and Ramos cells (Homo sapiens, UniProt O14980) (O14980 whole entry): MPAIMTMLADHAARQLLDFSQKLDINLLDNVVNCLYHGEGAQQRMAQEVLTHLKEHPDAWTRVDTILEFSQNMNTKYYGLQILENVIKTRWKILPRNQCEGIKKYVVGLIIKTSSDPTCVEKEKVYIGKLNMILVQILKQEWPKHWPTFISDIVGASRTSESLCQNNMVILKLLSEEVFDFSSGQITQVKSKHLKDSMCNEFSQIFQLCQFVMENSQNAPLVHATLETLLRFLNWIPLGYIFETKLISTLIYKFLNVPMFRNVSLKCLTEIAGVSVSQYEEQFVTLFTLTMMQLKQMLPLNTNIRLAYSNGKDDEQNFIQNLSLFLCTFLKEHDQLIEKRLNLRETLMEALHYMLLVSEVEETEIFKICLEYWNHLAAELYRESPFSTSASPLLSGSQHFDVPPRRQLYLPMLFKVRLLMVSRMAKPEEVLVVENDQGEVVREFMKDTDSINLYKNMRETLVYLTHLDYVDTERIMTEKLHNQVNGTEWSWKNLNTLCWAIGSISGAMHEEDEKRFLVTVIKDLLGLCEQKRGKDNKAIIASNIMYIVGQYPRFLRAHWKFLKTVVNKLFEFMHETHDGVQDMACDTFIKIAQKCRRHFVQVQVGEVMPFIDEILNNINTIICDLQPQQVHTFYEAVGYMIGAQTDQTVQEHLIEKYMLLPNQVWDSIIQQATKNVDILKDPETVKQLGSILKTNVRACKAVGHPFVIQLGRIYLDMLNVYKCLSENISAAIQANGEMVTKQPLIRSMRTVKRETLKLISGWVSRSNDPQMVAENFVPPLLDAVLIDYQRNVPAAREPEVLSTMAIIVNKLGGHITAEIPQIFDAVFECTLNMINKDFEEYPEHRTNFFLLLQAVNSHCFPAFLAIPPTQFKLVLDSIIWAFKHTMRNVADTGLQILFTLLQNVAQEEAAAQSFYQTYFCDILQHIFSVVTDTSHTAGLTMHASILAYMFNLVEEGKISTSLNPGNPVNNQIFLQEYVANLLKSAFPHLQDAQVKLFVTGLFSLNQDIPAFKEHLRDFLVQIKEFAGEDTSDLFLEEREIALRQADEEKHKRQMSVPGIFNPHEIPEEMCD
Sequence of cysteines in MDA-MB-231 and Ramos cells (Homo sapiens, UniProt Q9UJW0) (Q9UJW0 whole entry): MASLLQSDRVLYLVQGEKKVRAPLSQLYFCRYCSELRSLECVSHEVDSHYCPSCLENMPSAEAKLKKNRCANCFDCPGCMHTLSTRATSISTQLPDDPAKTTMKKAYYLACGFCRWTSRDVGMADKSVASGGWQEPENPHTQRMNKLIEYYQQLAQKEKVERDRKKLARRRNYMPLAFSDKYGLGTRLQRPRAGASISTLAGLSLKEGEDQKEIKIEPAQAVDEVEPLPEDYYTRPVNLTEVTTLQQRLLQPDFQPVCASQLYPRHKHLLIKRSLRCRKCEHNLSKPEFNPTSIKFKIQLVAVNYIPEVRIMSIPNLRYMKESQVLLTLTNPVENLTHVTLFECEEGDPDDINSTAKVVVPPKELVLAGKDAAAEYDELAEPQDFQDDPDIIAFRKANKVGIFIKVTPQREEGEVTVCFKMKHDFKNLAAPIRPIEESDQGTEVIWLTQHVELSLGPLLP

isoTOP-ABPP ratio Q9UJW0_C258 ([1]; 200 μM, insitu, 231) | isoTOP-ABPP ratio Q96F86_C413 ([3]; 200 μM, insitu, 231) | isoTOP-ABPP ratio Q86W42_C35 ([8]; 200 μM, insitu, 231) | isoTOP-ABPP ratio Q86YH6_C71 ([5]; 200 μM, insitu, 231) | isoTOP-ABPP ratio Q9UNI6_C265 [9] | isoTOP-ABPP ratio Q86UY8_C276 ([7]; 200 μM, insitu, 231) | isoTOP-ABPP ratio P48643_C253 ([11]; 200 μM, insitu, 231) | isoTOP-ABPP ratio P35658_C728 ([6]; 200 μM, insitu, 231) | Structure (SMILES) | also measured
– | – | – | – | – | – | – | – | COc1ccc2c(c1)CCCN2C(=O)CCl [compound 2] | isoTOP-ABPP reactivity Q9UJW0_C258 DCTN4 ([1]; 200 μM, insitu, 231): 4.0; isoTOP-ABPP reactivity O14980_0528 XPO1 ([2]; 200 μM, insitu, 231): 20.0; isoTOP-ABPP reactivity Q96F86_C413 EDC3 ([3]; 200 μM, insitu, 231): 20.0; isoTOP-ABPP reactivity P53634_C258 CTSC [4]: 0.9; isoTOP-ABPP reactivity Q86YH6_C71 PDSS2 ([5]; 200 μM, insitu, 231): 20.0; isoTOP-ABPP reactivity P35658_C728 NUP214 ([6]; 200 μM, insitu, 231): 3.9; isoTOP-ABPP reactivity Q86UY8_C276 NT5DC3 ([7]; 200 μM, insitu, 231): 3.8
0.8 | 0.7 | 1.3 | 1.3 | 0.6 | 1.7 | – | – | CC(C)CCOCCNC(=O)CCl [compound 27] | isoTOP-ABPP ratio Q96EB1_C218 [10]: 0.6
20.0 | – | – | 20.0 | – | 20.0 | 5.1 | – | O=C(CCl)NC(=O)NC12CC3CC(CC(C3)C1)C2 [compound 12] | isoTOP-ABPP ratio, cysteine P53634_C258 [4]: 13.4; isoTOP-ABPP ratio, cysteine Q9UNI6_C265 [9]: 1.2
– | 0.8 | – | 2.1 | – | 1.8 | – | 1.3 | O=C(CCl)NC12CC3CC(CC(C3)C1)C2 [compound 21] | isoTOP-ABPP ratio O14980_C528 ([2]; 200 μM, insitu, 231): 0.8; isoTOP-ABPP ratio, cysteine P53634_C258 [4]: 2.8; isoTOP-ABPP ratio, cysteine Q96EB1_C218 [10]: 0.7
0.7 | – | 1.1 | 0.9 | 1.0 | 1.7 | 0.8 | 1.1 | Cc1ccc(C=C(C#N)C(=O)NCCN2CCOCC2)cc1 [compound 41] | isoTOP-ABPP ratio O14980_C528 ([2]; 200 μM, insitu, 231): 0.9; isoTOP-ABPP ratio P14635_C238 ([12]; 200 μM, insitu, 231): 0.5
– | – | – | – | – | – | – | – | Cn1cc(S(=O)(=O)N2CCOCC2)cc1C(=O)NC(=O)CCl [compound 11] | isoTOP-ABPP ratio P48643_C253 ([11]; 100 μM in situ 231): 0.6; isoTOP-ABPP ratio Q9UJW0_C258 ([1]; 100 μM in situ 231): 20.0; isoTOP-ABPP ratio O14980_C528 ([2]; 100 μM in situ 231): 0.7; isoTOP-ABPP ratio Q96F86_C413 ([3]; 100 μM in situ 231): 20.0; isoTOP-ABPP ratio Q86W42_C35 ([8]; 100 μM in situ 231): 1.3; isoTOP-ABPP ratio Q86YH6_C71 ([5]; 100 μM in situ 231): 1.0; isoTOP-ABPP ratio P35658_C728 ([6]; 100 μM in situ 231): 0.8; isoTOP-ABPP ratio, cysteine P14635_C238 ([12]; 100 μM in situ 231): 0.7; isoTOP-ABPP ratio Q86UY8_C276 ([7]; 100 μM in situ 231): 1.4
– | – | 1.3 | – | 0.8 | – | 0.8 | – | COc1ccccc1OCCNC(=O)CCl [compound 28] | –
2.7 | 20.0 | 20.0 | 20.0 | 7.5 | 2.1 | 1.2 | 3.1 | CC1CCc2ccccc2N1C(=O)CCl (stereo not drawn) [compound 45] | isoTOP-ABPP ratio Q96EB1_C218 [10]: 20.0
